Test results published in the supplement of paper PMC12463676, “Small-molecule dissolution of stress granules by redox modulation benefits ALS models” (Nature Chemical Biology, 2025).

Key:
potassium arsenate = compound: O=[As]([O-])(O)O.[K+] [potassium arsenate]; assay: thermal stability z-score vs DMSO; higher = more thermally stabilized by treatment; details: HeLa; arsenate concentration 1 mM
Description: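 Cellular thermal proteome profiling in HeLa cells treated with 1 mM arsenate for 1 h (DMSO pretreatment), heated to ten temperatures (37-66.3 °C). Soluble protein was quantified by TMT mass spectrometry relative to DMSO controls; the thermal stability score was transformed to a z-score; mean of n = 3 experiments.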

lipoamide = compound: NC(=O)CCCCC1CCSS1 [lipoamide]; assay: as above; details: HeLa, lipoamide concentration 100 µM
Description: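 Cellular thermal proteome profiling in HeLa cells. Cells were treated with 100 µM lipoamide for 1 h, with or without 1 mM arsenate for a further 1 h, then heated to ten temperatures (37-66.3 °C), and soluble protein was quantified by TMT mass spectrometry relative to 0.1% DMSO controls. The thermal stability score (sum of log2 fold changes minus the abundance score) was transformed to a z-score; mean of n = 3 experiments.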

[1] = arsenate co-treatment: 1 mM arsenate 1 h
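Also: each temperature applied for 3 min, abundance score taken as mean log2 fold change at the two lowest temperatures, z-score obtained by mean subtraction and division by SD.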

Sequence of UniProt Q96IW7 (Q96IW7 whole entry): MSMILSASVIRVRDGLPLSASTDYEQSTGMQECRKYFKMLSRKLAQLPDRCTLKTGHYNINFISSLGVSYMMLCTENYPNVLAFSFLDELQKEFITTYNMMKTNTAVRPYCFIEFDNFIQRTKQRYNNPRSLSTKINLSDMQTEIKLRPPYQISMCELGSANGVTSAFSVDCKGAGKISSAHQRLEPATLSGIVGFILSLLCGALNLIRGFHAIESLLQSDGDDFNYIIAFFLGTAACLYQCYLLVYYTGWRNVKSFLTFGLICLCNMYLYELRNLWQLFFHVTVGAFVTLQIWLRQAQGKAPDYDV
Sequence of UniProt Q9NPL8 (Q9NPL8 whole entry): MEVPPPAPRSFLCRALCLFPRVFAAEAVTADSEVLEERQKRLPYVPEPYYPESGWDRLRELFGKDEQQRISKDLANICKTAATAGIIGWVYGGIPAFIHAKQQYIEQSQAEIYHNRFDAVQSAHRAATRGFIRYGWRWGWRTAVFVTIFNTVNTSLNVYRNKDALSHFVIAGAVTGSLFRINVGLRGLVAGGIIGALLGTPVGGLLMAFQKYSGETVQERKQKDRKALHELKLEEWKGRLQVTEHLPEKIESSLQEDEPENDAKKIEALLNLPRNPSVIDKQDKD
Sequence of UniProt Q9P275 (Q9P275 whole entry): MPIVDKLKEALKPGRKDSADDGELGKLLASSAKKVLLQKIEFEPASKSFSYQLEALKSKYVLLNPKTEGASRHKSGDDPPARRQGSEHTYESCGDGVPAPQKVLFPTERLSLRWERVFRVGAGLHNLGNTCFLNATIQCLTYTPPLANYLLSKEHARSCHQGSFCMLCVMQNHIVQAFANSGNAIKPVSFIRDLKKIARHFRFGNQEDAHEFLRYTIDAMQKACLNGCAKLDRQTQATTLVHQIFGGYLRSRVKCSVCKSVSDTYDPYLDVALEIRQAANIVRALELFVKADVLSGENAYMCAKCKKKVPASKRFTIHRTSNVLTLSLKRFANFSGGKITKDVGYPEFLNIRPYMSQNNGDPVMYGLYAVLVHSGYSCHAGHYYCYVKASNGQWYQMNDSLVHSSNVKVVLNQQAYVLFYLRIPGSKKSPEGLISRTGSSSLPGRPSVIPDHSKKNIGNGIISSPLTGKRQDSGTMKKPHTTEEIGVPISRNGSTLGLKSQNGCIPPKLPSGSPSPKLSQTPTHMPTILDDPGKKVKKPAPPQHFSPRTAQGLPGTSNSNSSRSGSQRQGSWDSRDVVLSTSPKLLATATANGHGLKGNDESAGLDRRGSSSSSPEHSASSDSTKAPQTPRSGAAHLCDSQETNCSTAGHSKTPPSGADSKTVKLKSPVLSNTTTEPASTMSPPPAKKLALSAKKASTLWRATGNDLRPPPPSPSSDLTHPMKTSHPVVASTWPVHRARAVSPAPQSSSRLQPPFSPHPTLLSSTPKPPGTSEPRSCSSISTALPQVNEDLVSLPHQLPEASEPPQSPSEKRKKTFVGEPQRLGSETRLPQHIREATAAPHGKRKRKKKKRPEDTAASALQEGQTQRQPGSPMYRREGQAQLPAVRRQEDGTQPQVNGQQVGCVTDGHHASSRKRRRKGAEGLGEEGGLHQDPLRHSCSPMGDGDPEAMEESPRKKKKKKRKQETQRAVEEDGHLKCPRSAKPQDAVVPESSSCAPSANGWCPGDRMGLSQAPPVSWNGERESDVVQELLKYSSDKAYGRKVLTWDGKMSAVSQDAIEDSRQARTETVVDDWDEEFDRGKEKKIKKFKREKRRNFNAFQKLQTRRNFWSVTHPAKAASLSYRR
Sequence of UniProt O75379 (O75379 whole entry): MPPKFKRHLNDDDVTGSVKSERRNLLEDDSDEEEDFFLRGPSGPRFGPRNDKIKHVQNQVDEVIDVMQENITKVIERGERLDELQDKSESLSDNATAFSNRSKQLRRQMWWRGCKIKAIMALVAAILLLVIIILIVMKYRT
Sequence of UniProt P15927 (P15927 whole entry): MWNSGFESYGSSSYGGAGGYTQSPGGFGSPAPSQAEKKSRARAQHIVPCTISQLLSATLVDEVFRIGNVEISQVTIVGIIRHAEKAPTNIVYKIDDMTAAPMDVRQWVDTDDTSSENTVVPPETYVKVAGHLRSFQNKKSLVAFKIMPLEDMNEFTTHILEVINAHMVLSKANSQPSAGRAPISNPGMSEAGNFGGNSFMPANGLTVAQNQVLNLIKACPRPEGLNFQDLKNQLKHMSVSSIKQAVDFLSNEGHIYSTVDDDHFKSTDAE
Sequence of UniProt Q86VN1 (Q86VN1 whole entry): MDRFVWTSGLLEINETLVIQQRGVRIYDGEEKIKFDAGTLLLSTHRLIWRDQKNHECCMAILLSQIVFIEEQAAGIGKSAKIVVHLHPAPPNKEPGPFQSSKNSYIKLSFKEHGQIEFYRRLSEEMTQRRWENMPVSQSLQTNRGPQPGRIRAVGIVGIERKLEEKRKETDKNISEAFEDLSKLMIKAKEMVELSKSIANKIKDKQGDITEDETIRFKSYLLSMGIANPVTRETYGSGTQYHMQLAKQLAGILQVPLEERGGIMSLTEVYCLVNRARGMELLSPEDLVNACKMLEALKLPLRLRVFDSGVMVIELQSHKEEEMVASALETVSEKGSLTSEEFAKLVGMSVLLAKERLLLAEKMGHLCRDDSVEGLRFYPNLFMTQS
Sequence of UniProt Q7Z2K8 (Q7Z2K8 whole entry): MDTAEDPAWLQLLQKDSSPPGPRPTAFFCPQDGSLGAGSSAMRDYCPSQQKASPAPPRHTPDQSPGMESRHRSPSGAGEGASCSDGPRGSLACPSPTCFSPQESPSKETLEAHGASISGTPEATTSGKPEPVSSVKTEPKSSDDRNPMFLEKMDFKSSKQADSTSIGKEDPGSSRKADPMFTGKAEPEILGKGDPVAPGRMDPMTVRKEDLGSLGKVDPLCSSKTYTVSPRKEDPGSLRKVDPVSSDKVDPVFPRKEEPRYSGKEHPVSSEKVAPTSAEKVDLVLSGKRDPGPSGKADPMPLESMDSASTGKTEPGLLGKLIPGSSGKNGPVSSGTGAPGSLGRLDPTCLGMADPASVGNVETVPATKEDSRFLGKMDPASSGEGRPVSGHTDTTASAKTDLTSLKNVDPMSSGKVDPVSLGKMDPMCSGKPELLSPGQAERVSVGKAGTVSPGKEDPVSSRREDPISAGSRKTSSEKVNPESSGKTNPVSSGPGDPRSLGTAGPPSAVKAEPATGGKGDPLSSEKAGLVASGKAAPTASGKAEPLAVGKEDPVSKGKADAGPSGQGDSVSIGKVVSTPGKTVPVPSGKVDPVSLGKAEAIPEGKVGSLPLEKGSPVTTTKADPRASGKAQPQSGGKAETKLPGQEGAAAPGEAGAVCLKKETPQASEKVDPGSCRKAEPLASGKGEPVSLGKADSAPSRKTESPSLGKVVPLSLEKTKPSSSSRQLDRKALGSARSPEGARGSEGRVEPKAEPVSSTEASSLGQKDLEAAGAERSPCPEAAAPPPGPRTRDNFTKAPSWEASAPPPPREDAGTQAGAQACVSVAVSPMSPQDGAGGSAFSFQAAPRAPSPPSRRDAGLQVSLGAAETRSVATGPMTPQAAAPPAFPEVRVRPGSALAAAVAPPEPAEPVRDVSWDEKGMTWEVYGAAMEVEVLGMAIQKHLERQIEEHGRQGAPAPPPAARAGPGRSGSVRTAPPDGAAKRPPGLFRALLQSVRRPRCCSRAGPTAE
Sequence of UniProt Q9H1K1 (Q9H1K1 whole entry): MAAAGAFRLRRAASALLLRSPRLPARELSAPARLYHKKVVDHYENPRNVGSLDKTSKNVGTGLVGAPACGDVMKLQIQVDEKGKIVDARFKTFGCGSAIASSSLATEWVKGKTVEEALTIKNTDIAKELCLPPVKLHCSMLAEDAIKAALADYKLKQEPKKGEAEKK
Sequence of UniProt Q14244 (Q14244 whole entry): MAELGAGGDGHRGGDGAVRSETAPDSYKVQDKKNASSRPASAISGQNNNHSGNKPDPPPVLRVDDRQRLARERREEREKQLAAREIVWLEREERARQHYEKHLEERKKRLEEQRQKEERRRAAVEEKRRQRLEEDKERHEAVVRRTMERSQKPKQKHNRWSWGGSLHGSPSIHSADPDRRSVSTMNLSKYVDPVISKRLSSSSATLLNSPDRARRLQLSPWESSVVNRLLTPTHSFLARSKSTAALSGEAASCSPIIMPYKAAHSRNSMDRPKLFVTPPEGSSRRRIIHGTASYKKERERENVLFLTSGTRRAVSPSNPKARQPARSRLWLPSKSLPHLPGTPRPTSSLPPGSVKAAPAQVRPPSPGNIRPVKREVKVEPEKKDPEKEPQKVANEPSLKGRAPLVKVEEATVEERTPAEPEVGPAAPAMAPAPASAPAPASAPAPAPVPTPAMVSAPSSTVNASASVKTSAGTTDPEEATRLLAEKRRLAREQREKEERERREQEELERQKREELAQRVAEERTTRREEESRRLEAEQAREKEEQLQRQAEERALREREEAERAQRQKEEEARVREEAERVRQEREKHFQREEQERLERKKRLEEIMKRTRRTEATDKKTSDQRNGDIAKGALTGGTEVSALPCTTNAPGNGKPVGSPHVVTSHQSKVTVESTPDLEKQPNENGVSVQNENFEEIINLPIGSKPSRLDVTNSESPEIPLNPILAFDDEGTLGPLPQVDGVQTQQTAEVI
Sequence of UniProt P06733 (P06733 whole entry): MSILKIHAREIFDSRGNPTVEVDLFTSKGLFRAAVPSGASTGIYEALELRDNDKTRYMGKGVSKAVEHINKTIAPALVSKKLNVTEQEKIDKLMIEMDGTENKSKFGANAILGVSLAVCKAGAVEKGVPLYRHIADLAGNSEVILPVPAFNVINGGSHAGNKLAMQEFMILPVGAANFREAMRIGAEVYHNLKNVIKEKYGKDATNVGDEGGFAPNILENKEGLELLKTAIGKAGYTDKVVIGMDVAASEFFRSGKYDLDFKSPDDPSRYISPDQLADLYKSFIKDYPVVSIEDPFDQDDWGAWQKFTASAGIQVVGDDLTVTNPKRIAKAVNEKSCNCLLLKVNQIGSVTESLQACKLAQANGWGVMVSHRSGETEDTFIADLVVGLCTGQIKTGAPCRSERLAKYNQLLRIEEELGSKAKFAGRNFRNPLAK
Sequence of UniProt P60903 (P60903 whole entry): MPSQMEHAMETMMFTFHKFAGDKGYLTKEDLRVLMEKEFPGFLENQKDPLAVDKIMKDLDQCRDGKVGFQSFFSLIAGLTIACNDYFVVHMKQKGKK

| Target | thermal stability z-score (potassium arsenate) | thermal stability z-score (lipoamide; [1]) | thermal stability z-score (lipoamide; arsenate co-treatment: none) |
| --- | --- | --- | --- |
| RPA2 (UniProt P15927) | 0.659 | -0.131 | -0.662 |
| ISCU (UniProt Q9H1K1) | -1.15 | 0.628 | 0.0375 |
| CHTOP (UniProt Q9Y3Y2) | 0.73 | 1.86 | 0.726 |
| SDSL (UniProt Q96GA7) | -0.745 | 0.0811 | 1.46 |
| VBP1 (UniProt P61758) | -0.72 | -0.615 | -0.366 |
| WDR55 (UniProt Q9H6Y2) | -1.7 | 0.00122 | -0.679 |
| TIMMDC1 (UniProt Q9NPL8) | 0.538 | 0.185 | -0.271 |
| MRPS21 (UniProt P82921) | 1.03 | -0.28 | -0.78 |
| HDGF (UniProt P51858) | 0.19 | 0.026 | 0.439 |
| FIGNL1 (UniProt Q6PIW4) | -1 | -0.113 | -0.0699 |
| RPL26L1 (UniProt Q9UNX3) | 0.434 | 0.252 | 0.884 |
| TMX3 (UniProt Q96JJ7) | 1.29 | -0.503 | -0.791 |
| C12ORF45 (UniProt Q8N5I9) | 0.591 | 0.42 | 0.511 |
| CAMSAP1 (UniProt Q5T5Y3) | -0.293 | 0.0305 | -0.371 |
| EPHX1 (UniProt P07099) | 0.24 | 3.16 | 3.19 |
| RIOK2 (UniProt Q9BVS4) | -0.171 | -0.0928 | -0.423 |
| HAUS1 (UniProt Q96CS2) | 0.0563 | 0.0371 | 0.00541 |
| GPRIN1 (UniProt Q7Z2K8) | -0.256 | 0.529 | -0.0428 |
| CLTB (UniProt P09497) | 0.557 | 1.48 | 1.89 |
| SLC25A12 (UniProt O75746) | -0.0761 | -0.149 | -0.154 |
| SLC25A20 (UniProt O43772) | -0.0934 | 2.62 | 0.0858 |
| CHSY1 (UniProt Q86X52) | -0.171 | -0.212 | -0.333 |
| UQCRB (UniProt P14927) | 0.208 | 0.896 | 0.847 |
| RAB13 (UniProt P51153) | 0.695 | -0.898 | -0.475 |
| SMARCE1 (UniProt Q969G3) | 0.125 | 1.96 | 1.55 |
| SEC22A (UniProt Q96IW7) | 0.684 | 0.0383 | -0.0317 |
| GSTO1 (UniProt P78417) | 0.362 | 3 | 2.41 |
| RPS12 (UniProt P25398) | -0.949 | 0.613 | 0.884 |

| Target | thermal stability z-score (potassium arsenate) | thermal stability z-score (lipoamide; [1]) | thermal stability z-score (lipoamide; arsenate co-treatment: none) |
| --- | --- | --- | --- |
| VPS36 (UniProt Q86VN1) | 0.0802 | -0.308 | -0.0675 |
| TBCEL (UniProt Q5QJ74) | 0.0212 | -0.202 | -0.0108 |
| PRDX4 (UniProt Q13162) | 0.674 | 0.155 | 0.76 |
| NAT6 (UniProt Q93015) | -0.338 | 0.0786 | -0.349 |
| CREBBP (UniProt Q92793) | -0.693 | 0.397 | -0.0649 |
| WDR7 (UniProt Q9Y4E6) | -0.351 | -0.338 | 0.149 |
| USP36 (UniProt Q9P275) | -0.265 | 0.216 | -0.0229 |
| ARPC5L (UniProt Q9BPX5) | -0.302 | 0.0991 | -0.00985 |
| FN3KRP (UniProt Q9HA64) | 0.155 | -0.401 | 0.365 |
| EIF3D (UniProt O15371) | -0.0622 | -0.0633 | 0.0556 |
| MAP7 (UniProt Q14244) | -0.779 | 0.478 | -0.183 |
| IDH3B (UniProt O43837) | -1.28 | 0.075 | -1.17 |
| LIN7C (UniProt Q9NUP9) | 0.379 | 0.138 | 0.419 |
| GDPGP1 (UniProt Q6ZNW5) | -0.786 | -0.332 | -0.511 |
| S100A10 (UniProt P60903) | 0.372 | 1.65 | 1.54 |
| MTIF3 (UniProt Q9H2K0) | 0.55 | 0.621 | 0.197 |
| SNUPN (UniProt O95149) | -0.43 | -0.201 | -1.48 |
| BCL3 (UniProt P20749) | -0.0259 | -0.234 | 0.114 |
| VAMP4 (UniProt O75379) | 0.236 | 1.45 | 1.92 |
| ENO1 (UniProt P06733) | -0.0281 | 0.588 | 0.278 |
| SMG1 (UniProt Q96Q15) | 0.119 | -0.284 | -0.117 |
| MRPS35 (UniProt P82673) | -0.0913 | -0.663 | -0.362 |
| HEATR5A (UniProt Q86XA9) | 0.782 | -0.931 | 0.157 |
| ATXN2 (UniProt Q99700) | -0.245 | 0.168 | 0.133 |
| ATRN (UniProt O75882) | 0.705 | 0.622 | -0.532 |
| AKAP9 (UniProt Q99996) | 1.18 | 0.757 | 1.46 |
| PTRF (UniProt Q6NZI2) | 0.778 | 0.213 | 0.0879 |
